The values that follow come from US20240069011A1, “PREDICTING EFFICACY OF OR RESISTANCE TO TREATMENT OF COLON CANCER” (2cureX A/S, priority 2020, published 2024).

Assay [1] deals with tumoroids from colon cancer patients. Put plainly: Tumoroid growth inhibition measured as projected area by imaging (CyQUANT, IndiNet). It is filed as cell-based, human. The conditions noted are these: 50% inhibition of tumoroid growth (projected area), day 7, tumoroids from four control patients. How it is done:
The tumoroids were prepared from patient samples as described above in Example 2 under “3D tumoroid preparation”. The tumoroids were added to drug screening arrays that we pre-loaded with varying concentrations of Oxaliplatin (3, 10, 30, 100, 300 uM), FOLFOX (0, 1, 0, 3, 1, 3, 10 30 uM. Equal concentrations of 5-Fluorouracil and Oxaliplatin) and SN38 (10, 30, 100, 300, 1000 nM). SN38 is the active components of Irinotecan. At day 6 to day 7 tumoroids were stained with CyQUANT (cell proliferation assay). Tumoroid growth was measured by taking brightfield images on day 0 and visualizing living cells using CyQUANT Cell proliferation assay (ThermoFisher) on day 7. All images were acquired using a Cytation 1 (BioTek) imaging system. For Control patients, tissue from resected tumor was used. This sampling method typically secures bigger amounts of tissue and mechanically as well as enzymatically digestion is performed.
Images from day 0 and day 7 were analysed using the Al image analysis algorithm IndiNet™, which quantifies the projected area (referred to as “area” in this example) of live cells in both brightfield (day 0) and fluorescence (day 7) images and calculates the relative growth inhibition. […]

Assay [2] has the same test system. Put plainly: Tumoroid ATP content (CellTiter-Glo 3D cell viability assay). The class given is cell-based, human. The conditions noted are these: 50% inhibition of total ATP content, day 7, tumoroids from four control patients. The method, then:
The tumoroids were prepared from the same patient samples as described above under “drug sensitivity measured with imaging”. The tumoroids were added to drug screening arrays that we pre-loaded with varying concentrations of Oxaliplatin (3, 10, 30, 100, 300 uM), FOLFOX (0, 1, 0, 3, 1, 3, 10 30 uM. Equal concentrations of 5-Fluorouracil and Oxaliplatin) and SN38 (10, 30, 100, 300, 1000 nM). ATP content of cells in the tumoroids was measured day 0 and on day 7 using CellTiter-Glo 3D cell viability assay (Promega; Catalog number G9681). The homogenous CellTiter-Glo 3D assays generates a luminescent signal that is proportional to the amount of cellular ATP. The assay was conducted in accordance with the instructions from the manufacture (Promega) by allowing the drug screening arrays to equilibrate to room temperature (20-25° C.) and then adding an amount of the CellTiter-Glo 3D reagent to the drug screening arrays. The equal volume of media and reagent is mixed thoroughly for 5 min to induce cell lysis and release of cellular ATP content. The luminescence signal was monitored with the Cytation 1 (BioTek) imaging system operating in luminescence mode. The luminescence signal was quantified by direct comparison to an ATP dose-response curve created by replacing the drug screening media with ATP standards.

Where [3] appears, read: Folfox = equal concentrations of 5-Fluorouracil and Oxaliplatin.

As to `O=C1[O][Pt]2([NH][C@@H]3CCCC[C@H]3[NH]2)[O]C1=O` [Oxaliplatin, oxaliplatin], the IC50 was 17.7 µM in assay [1] (setting [3]) and 72.7 µM in assay [2] (setting [3]).

As for `CCc1c2c(nc3ccc(O)cc13)-c1cc3c(c(=O)n1C2)COC(=O)[C@]3(O)CC` [SN38], the results for the IC50 in assay [1] and in assay [2] were 0.00164 µM and 0.0367 µM, respectively.
